# Experimental data taken from patent US20250129054A1 (Terran Biosciences Inc., priority 2022, published 2025).
# Assay: Serial tail vein bleed PK study in SD rats: methylone measured in plasma after IV or oral methylone or oral methylone prodrugs
# Type: in vivo, Sprague Dawley rats
# Details: for Plasma Concentrations of metabolite methylone: 10 mg/kg, rat; for Tlast: analyte methylone in plasma, oral methylone THP 1-ethyl ester prodrug 10 mg/kg, male SD rats
# Description: A pharmacokinetic (PK) study was performed in three male Sprague-Dawley (SD) rats following intravenous (IV) and oral (PO) administration of methylone at 1 mg/kg (IV) and 10 mg/kg (PO) respectively, or test compounds (prodrugs of methylone) at 10 mg/kg (PO). Parent compound (methylone) was measured in plasma.
# Samples were sent for method optimization and measurement of parent compound (methylone) via unique calibration lines and following acceptance QC's. Dose formulation concentrations were also measured, and PK parameters were determined (Cmax (ng/mL), Tmax (hr), Cl (ml/min/kg), Vdss (L/kg), t½(hr), AUC0-t (ng/mL*hr), AUC0-inf (ng/mL*hr), MIRT (hr), Bioavailability ([…]) where warranted) using WinNon Lin software. Data (including bioanalytical results and assay performance) were reported in a tabulated format.
# Formulation for PO Administration: For PO dosing, the prodrug was formulated in 10% DMSO/20% PEG400/70% water to a concentration of 2 mg free metabolite material/mL. This provided a dose of 10 mg free metabolite/kg when the prodrug was administered PO in 5 mL/kg dosing volumes.
# Formulation for IV administration: For IV dosing, rac-methylone was formulated as solution in saline to a concentration of 0.5 mg free metabolite material/mL. This provided a dose of 1 mg free metabolite/kg when administered IV in 2 mL/kg dosing volumes.
# The pharmacokinetic properties of the synthesized methylone prodrugs after oral administration in a rat model were assessed. The concentration of methylone was measured in each rat at various sampling timepoints after IV or oral administration of rac-methylone or the synthesized methylone prodrugs to rats.
# Dose formulations were made at equivalent concentrations of active compound (methylone) adjusted for molecular weight of the compounds. The synthesized methylone prodrugs or analogs were dosed at 10 mg/kg oral (PO) nominal dose. Nominal doses were used in PK parameter determinations. The parent compound (methylone) was dosed at 1 mg/kg intravenous (IV) and 10 mg/kg (PO).
# [1] = 0.500 h after oral dosing of the prodrug, individual animals
# [2] = 0.500 h after oral dosing of the prodrug, mean
# [3] = 1.00 h after oral dosing of the prodrug, individual animals
# [4] = 1.00 h after oral dosing of the prodrug, mean
# [5] = 2.00 h after oral dosing of the prodrug, individual animals
# [6] = 2.00 h after oral dosing of the prodrug, mean
# [7] = 4.00 h after oral dosing of the prodrug, individual animals
# [8] = 4.00 h after oral dosing of the prodrug, mean
# [9] = 7.00 h after oral dosing of the prodrug, individual animals
# [10] = 7.00 h after oral dosing of the prodrug, mean
# [11] = 24.0 h after oral dosing of the prodrug, individual animals
# [12] = 24.0 h after oral dosing of the prodrug, mean
Compound,Plasma Concentrations of metabolite methylone [1],Plasma Concentrations of metabolite methylone [2],Plasma Concentrations of metabolite methylone [3],Plasma Concentrations of metabolite methylone [4],Plasma Concentrations of metabolite methylone [5],Plasma Concentrations of metabolite methylone [6],Plasma Concentrations of metabolite methylone [7],Plasma Concentrations of metabolite methylone [8],Plasma Concentrations of metabolite methylone [9],Plasma Concentrations of metabolite methylone [10],Plasma Concentrations of metabolite methylone [11],Plasma Concentrations of metabolite methylone [12],Tlast (individual animal) [h],Tlast (mean) [h]
"CC(C)OC(=O)N(C)C(C)C(=O)c1ccc2c(c1)OCO2 (centres unmarked) [Compound 1B, iso-Propyl N-[2-(1,3-benzodioxol-5-yl)-1-methyl-2-oxo-ethyl]-N-methyl-carbamate]",BLQ (Below Lower Limit of Quantification (0.5 ng/mL)),BLQ (Below Lower Limit of Quantification (0.5 ng/mL)),BLQ (Below Lower Limit of Quantification (0.5 ng/mL)),BLQ (Below Lower Limit of Quantification (0.5 ng/mL)),BLQ (Below Lower Limit of Quantification (0.5 ng/mL)),BLQ (Below Lower Limit of Quantification (0.5 ng/mL)),BLQ (Below Lower Limit of Quantification (0.5 ng/mL)),BLQ (Below Lower Limit of Quantification (0.5 ng/mL)),BLQ (Below Lower Limit of Quantification (0.5 ng/mL)),BLQ (Below Lower Limit of Quantification (0.5 ng/mL)),BLQ (Below Lower Limit of Quantification (0.5 ng/mL)),BLQ (Below Lower Limit of Quantification (0.5 ng/mL)),–,–
"CC(C(=O)c1ccc2c(c1)OCO2)N(C)C(=O)CN(C)C (centres unmarked) [Compound 3B, N-[2-(1,3-Benzodioxol-5-yl)-1-methyl-2-oxo-ethyl]-2-(dimethylamino)-N-methyl-acetamide]",BLQ (Below Lower Limit of Quantification (0.5 ng/mL)),BLQ (Below Lower Limit of Quantification (0.5 ng/mL)),BLQ (Below Lower Limit of Quantification (0.5 ng/mL)),BLQ (Below Lower Limit of Quantification (0.5 ng/mL)),BLQ (Below Lower Limit of Quantification (0.5 ng/mL)),BLQ (Below Lower Limit of Quantification (0.5 ng/mL)),BLQ (Below Lower Limit of Quantification (0.5 ng/mL)),BLQ (Below Lower Limit of Quantification (0.5 ng/mL)),BLQ (Below Lower Limit of Quantification (0.5 ng/mL)),BLQ (Below Lower Limit of Quantification (0.5 ng/mL)),BLQ (Below Lower Limit of Quantification (0.5 ng/mL)),BLQ (Below Lower Limit of Quantification (0.5 ng/mL)),–,–
"1-[[2-(1,3-Benzodioxol-5-yl)-1-methyl-2-oxo-ethyl]-methyl-carbamoyl]oxyethyl tetrahydropyran-4-carboxylate [Compound 6E]",–,–,–,–,–,–,–,–,–,–,–,–,7.00,7.00
"CC(C(=O)c1ccc2c(c1)OCO2)N(C)C(=O)C(C)(C)C (centres unmarked) [PG, N-[2-(1,3-Benzodioxol-5-yl)-1-methyl-2-oxo-ethyl]-N-2,2-trimethyl-propanamide]",BLQ (Below Lower Limit of Quantification (0.5 ng/mL)),BLQ (Below Lower Limit of Quantification (0.5 ng/mL)),BLQ (Below Lower Limit of Quantification (0.5 ng/mL)),BLQ (Below Lower Limit of Quantification (0.5 ng/mL)),BLQ (Below Lower Limit of Quantification (0.5 ng/mL)),BLQ (Below Lower Limit of Quantification (0.5 ng/mL)),BLQ (Below Lower Limit of Quantification (0.5 ng/mL)),BLQ (Below Lower Limit of Quantification (0.5 ng/mL)),BLQ (Below Lower Limit of Quantification (0.5 ng/mL)),BLQ (Below Lower Limit of Quantification (0.5 ng/mL)),BLQ (Below Lower Limit of Quantification (0.5 ng/mL)),BLQ (Below Lower Limit of Quantification (0.5 ng/mL)),–,–
"CCOC(=O)N(C)C(C)C(=O)c1ccc2c(c1)OCO2 (centres unmarked) [Compound 1A, Ethyl N-[2-(1,3-benzodioxol-5-yl)-1-methyl-2-oxo-ethyl]-N-methyl-carbamate]",BLQ (Below Lower Limit of Quantification (0.5 ng/mL)),BLQ (Below Lower Limit of Quantification (0.5 ng/mL)),BLQ (Below Lower Limit of Quantification (0.5 ng/mL)),BLQ (Below Lower Limit of Quantification (0.5 ng/mL)),BLQ (Below Lower Limit of Quantification (0.5 ng/mL)),BLQ (Below Lower Limit of Quantification (0.5 ng/mL)),BLQ (Below Lower Limit of Quantification (0.5 ng/mL)),BLQ (Below Lower Limit of Quantification (0.5 ng/mL)),BLQ (Below Lower Limit of Quantification (0.5 ng/mL)),BLQ (Below Lower Limit of Quantification (0.5 ng/mL)),BLQ (Below Lower Limit of Quantification (0.5 ng/mL)),BLQ (Below Lower Limit of Quantification (0.5 ng/mL)),–,–
